Test system: MDA-MB-231 multicell spheroids, viability (%T/C)
Assay: Anticancer human tumor MDA-MB-231 cell line growth inhibition [IpAb];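 also: viability read after seven days of drug exposure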;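 as to viability, T/C: 100% = DMSO vehicle control viability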
Conditions: for IC50: curve of first compound; for viability, T/C: stronger effect = lower value
In short: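 Multi-cell spheroids of 60% tumour cells, 25% HUVEC and 15% MSC in ultra-low-attachment U-bottom wells, treated with agents combined with ipatasertib or abemaciclib. Half-log ranges top out near clinical Cmax, or 10 microM when Cmax is unknown.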

Structure (SMILES): CC(C)(C)c1cnc(CSc2cnc(NC(=O)C3CCNCC3)s2)o1 + CC(C)NCC(C(=O)N1CCN(c2ncnc3c2C(C)CC3O)CC1)c1ccc(Cl)cc1
- IC50 (second compound 0.1 µM): 171 nM
- IC50 (second compound 0.316 µM): 152 nM
- IC50 (second compound 1 µM): 140 nM
- IC50 (second compound 3.16 µM): 109 nM
- IC50 (second compound 10 µM): < 9.49 nM
- viability, T/C (second compound 0.1 µM, first compound 0.00949 µM): 110%
- viability, T/C (second compound 0.1 µM, first compound 0.03 µM): 115%
- viability, T/C (second compound 0.1 µM, first compound 0.0949 µM): 101%
- viability, T/C (second compound 0.1 µM, first compound 0.3 µM): 1.85%
- viability, T/C (second compound 0.1 µM, first compound 0.949 µM): 1.02%
- viability, T/C (second compound 0.1 µM, first compound 3 µM): 1.06%
- viability, T/C (second compound 0.316 µM, first compound 0.00949 µM): 94.5%
- viability, T/C (second compound 0.316 µM, first compound 0.03 µM): 98.8%
- viability, T/C (second compound 0.316 µM, first compound 0.0949 µM): 83.5%
- viability, T/C (second compound 0.316 µM, first compound 0.3 µM): 1.35%
- viability, T/C (second compound 0.316 µM, first compound 0.949 µM): 0.87%
- viability, T/C (second compound 0.316 µM, first compound 3 µM): 0.98%
- viability, T/C (second compound 1 µM, first compound 0.00949 µM): 79.2%
- viability, T/C (second compound 1 µM, first compound 0.03 µM): 84.8%
- viability, T/C (second compound 1 µM, first compound 0.0949 µM): 74.4%
- viability, T/C (second compound 1 µM, first compound 0.3 µM): 2.5%
- viability, T/C (second compound 1 µM, first compound 0.949 µM): 0.85%
- viability, T/C (second compound 1 µM, first compound 3 µM): 0.86%
- viability, T/C (second compound 3.16 µM, first compound 0.00949 µM): 61.1%
- viability, T/C (second compound 3.16 µM, first compound 0.03 µM): 61.7%
- viability, T/C (second compound 3.16 µM, first compound 0.0949 µM): 56.5%
- viability, T/C (second compound 3.16 µM, first compound 0.3 µM): 1.57%
- viability, T/C (second compound 3.16 µM, first compound 0.949 µM): 0.65%
- viability, T/C (second compound 3.16 µM, first compound 3 µM): 0.78%
- viability, T/C (second compound 10 µM, first compound 0.00949 µM): 42.1%
- viability, T/C (second compound 10 µM, first compound 0.03 µM): 43.8%
- viability, T/C (second compound 10 µM, first compound 0.0949 µM): 35.1%
- viability, T/C (second compound 10 µM, first compound 0.3 µM): 0.95%
- viability, T/C (second compound 10 µM, first compound 0.949 µM): 0.79%
- viability, T/C (second compound 10 µM, first compound 3 µM): 0.8%

— PubChem BioAssay AID2060328 (Molecular Pharmacology Branch, DTP, NCI, 2025)
